Columns and labels:
KRAS-G12V = molecular target: T1, KRAS-G12V (Homo sapiens, UniProt P01116, G12V); assay: SOS-catalyzed nucleotide exchange assay (Procedure A, TR-FRET); assay type: biochemical; settings: 60 min preincubation, SOS + GTP, read-out: KRAS G12V GNE IC50
T1 construct: N-terminal biotin-acceptor peptide […]
Text: (§1) Procedure for SOS-Catalyzed Nucleotide Exchange Assay for KRAS-G12C/D/V, G13D, HRAS, and NRAS (Procedure A)
(§2) Recombinant KRAS-G12C protein used in this assay has an additional triple mutation (C51S/C80L/C118S), whereas KRAS-G12D/V, G13D, HRAS and NRAS are in context of their WT protein sequence background. Specifically, the SOS-catalyzed nucleotide exchange assay utilizes a preformed TR-FRET complex containing a specific biotinylated RAS protein (KRAS-G12C/V/D, G13D, HRAS, NRAS; described above) with Bodipy-GDP, and Terbium-streptavidin. Compounds are preincubated with this complex for 60 minutes. Subsequently, recombinant human SOS protein and unlabeled GTP are added to initiate the exchange reaction. Small molecule inhibitors stabilize the Bodipy-GDP complex whereas the untreated protein rapidly exchanges Bodipy-GDP for unlabeled GTP resulting in reduced TR-FRET signal.
(§3) To assemble the preformed TR-FRET complexes, each biotinylated RAS protein is diluted to 2 μM in an EDTA Buffer (20 mM HEPES pH 7.5, 50 mM sodium chloride, 10 mM EDTA, and 0.01% Tween) and incubated at room temperature for one hour. This mixture is then further diluted to 90 nM in an Assay Buffer (20 mM HEPES pH 7.5, 150 mM sodium chloride, 10 mM magnesium chloride, and 0.005% Tween) containing 15 nM of Terbium-Streptavidin (Invitrogen, catalog #PV3577) and 900 nM of Bodipy-GDP (Invitrogen, catalog #G22360) and incubated at room temperature for six hours. It should be noted that this preformed TR-FRET complex for each of the RAS protein were made ahead of time, aliquoted and stored at −80° C. until the day of the experiment.
(§4) Each test compound (10 mM stock in DMSO) is diluted in DMSO to make a final-10-point, 3-fold dilution and is acoustically dispensed into a 384-well assay plate (Corning, catalog #3820) using an Echo 550 (Labcyte). Each well of the assay plate receives 3 μL of a specific 3× RAS preformed TR-FRET complex and 3 μL of Assay Buffer and is incubated at room temperature for 60 minutes (preincubation time). Each well then receives 3 μL of 3× recombinant human SOS protein and GTP (Sigma, G8877) in Assay Buffer and is incubated at room temperature for 30 minutes (G13D), 60 minutes (G12C/D, H/NRAS) or 90 minutes for G12V. The final reaction in each well of […] consists of 3 mM GTP, specific Ras and SOS proteins in the following concentrations: KRAS-G12C/SOS=3 nM/40 nM, KRAS-G12D/SOS=1 nM/40 nM, KRAS-G12V/SOS=1.25 nM/160 nM, KRAS-G13D/SOS=1.25 nM/0 nM, HRAS & NRAS=1.25 nM/40 nM.
(§5) The time-resolved fluorescence resonance energy transfer (TR-FRET) signal is measured on an Envision (PerkinElmer) plate reader: Excitation filter=340 nm; emission1=495 nm; emission2=520 nm; dichroic mirror=D400/D505; delay time=[…]. The signal of each well is determined as the ratio of the emission at 520 nm to that at 495 nm. […] The apparent effect as a function of compound concentration is fit to a four-parameter logistic equation.

KRAS-G12D = molecular target: T2, KRAS-G12D (Homo sapiens, UniProt P01116, G12D); assay: as above; assay type: biochemical; settings: 60 min preincubation, SOS + GTP, read-out: KRAS G12D GNE IC50
T2 construct: N-terminal biotin-acceptor peptide […]
T2 sequence (P01116 with tags, fused parts or gaps isoform P01116-2 G12D): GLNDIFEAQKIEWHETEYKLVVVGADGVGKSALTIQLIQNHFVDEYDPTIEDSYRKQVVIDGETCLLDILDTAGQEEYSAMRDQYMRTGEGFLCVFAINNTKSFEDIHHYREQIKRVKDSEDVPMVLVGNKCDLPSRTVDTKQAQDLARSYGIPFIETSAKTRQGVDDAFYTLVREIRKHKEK
Text: as §1, §2, §3, §4, §5

[1] = molecular target: T3, KRAS-G12C (C51S/C80L/C118S) (Homo sapiens, UniProt P01116, C118S/C51S/C80L/G12C); assay: as above; assay type: biochemical; settings: 60 min preincubation, SOS + GTP, read-out: KRAS G12C GNE IC50
T3 construct: N-terminal biotin-acceptor peptide […]
T3 sequence (P01116 with tags, fused parts or gaps isoform P01116-2 G12C/C51S/C80L/C118S): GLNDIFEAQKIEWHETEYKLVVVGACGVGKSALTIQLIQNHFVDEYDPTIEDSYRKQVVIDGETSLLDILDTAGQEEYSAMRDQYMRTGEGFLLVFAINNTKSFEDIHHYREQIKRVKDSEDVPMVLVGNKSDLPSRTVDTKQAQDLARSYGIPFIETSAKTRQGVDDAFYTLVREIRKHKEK
Text: as §1, §2, §3, §4, §5

KRAS-G13D = molecular target: T4, KRAS-G13D (Homo sapiens, UniProt P01116, G13D); assay: as above; assay type: biochemical; settings: 60 min preincubation, GTP, read-out: KRAS G13D GNE IC50
T4 construct: N-terminal biotin-acceptor peptide […]
T4 sequence (P01116 with tags, fused parts or gaps isoform P01116-2 G13D): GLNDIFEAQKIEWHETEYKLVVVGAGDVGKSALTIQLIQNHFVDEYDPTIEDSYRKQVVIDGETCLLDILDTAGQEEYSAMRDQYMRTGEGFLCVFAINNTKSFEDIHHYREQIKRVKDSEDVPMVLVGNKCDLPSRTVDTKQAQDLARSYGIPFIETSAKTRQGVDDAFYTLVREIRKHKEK
Text: as §1, §2, §3, §4, §5

NRAS = NRAS (Homo sapiens, UniProt P01111); assay: as above; assay type: biochemical; settings: 60 min preincubation, SOS + GTP, read-out: NRAS GNE IC50
NRAS, sequence (P01111 with tags, fused parts or gaps): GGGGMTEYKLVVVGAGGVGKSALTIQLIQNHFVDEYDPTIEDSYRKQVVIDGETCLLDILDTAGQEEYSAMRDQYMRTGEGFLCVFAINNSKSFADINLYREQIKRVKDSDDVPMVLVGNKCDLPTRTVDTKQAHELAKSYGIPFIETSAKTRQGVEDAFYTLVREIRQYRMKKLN
Text: as §1, §2, §3, §4
(§6) The time-resolved fluorescence resonance energy transfer (TR-FRET) signal is measured on an Envision (PerkinElmer) plate reader: Excitation filter=340 nm; emission1=495 nm; emission2=520 nm; dichroic mirror=D400/D505; delay time=[…]. The signal of each well is determined as the ratio of the emission at 520 nm to that at 495 nm. Percent effect of each well is determined after normalization to control wells containing DMSO (no effect) or a saturating concentration of inhibitor (max effect). The apparent effect as a function of compound concentration is fit to a four-parameter logistic equation.

HRAS = HRAS (Homo sapiens, UniProt P01112); assay: as above; assay type: biochemical; settings: 60 min preincubation, SOS + GTP, read-out: HRAS GNE IC50
HRAS, sequence (P01112 with tags, fused parts or gaps): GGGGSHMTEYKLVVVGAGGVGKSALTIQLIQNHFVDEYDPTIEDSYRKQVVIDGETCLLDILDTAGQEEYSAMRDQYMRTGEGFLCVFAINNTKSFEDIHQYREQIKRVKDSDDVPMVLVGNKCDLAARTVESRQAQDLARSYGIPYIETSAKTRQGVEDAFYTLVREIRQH
Text: as §1, §2, §3, §4, §6

[2] = system: PANC08.13 cells (homozygous KRAS-G12D activating mutation); assay: Cellular phospho-ERK assay in G12D cell line; assay type: cell-based; settings: Homo sapiens, PANC-08-13, 2 hours compound incubation, ratio of p-ERK vs. total ERK, read-out: PANC 0813 pERK IC50
Method: Procedure for Cellular Phospho-ERK Assay in G12D and G12V Cell Lines
PANC08.13 cells (ATCC® CRL-2551™), containing homozygous KRAS-G12D activating mutation, were cultured in growth medium made of RPMI1640-GlutaMAX™—I (ThermoFisher Scientific 61870) containing 15% heat inactivated fetal bovine serum (ThermoFisher Scientific 10091148)). SW620 cells (ATCC® […]), containing homozygous KRAS-G12V activating mutation, were cultured in growth medium that contains RPMI 1640-GlutaMAX™—I (ThermoFisher Scientific 61870) containing 10% heat inactivated fetal bovine serum (ThermoFisher Scientific 10091148).
Cells for the assay were harvested in growth medium after TrypLE (ThermoFisher scientific 12604021) digestion and were seeded in a 384-well collagen coated cell culture plate (Corning 356702) at a density of 10,000-15,000 cells/20 uL/well, and incubated at 37° C., 5% CO2 overnight. The compound (with 10 mM stock concentration) dose-response titrations were prepared [30 μM final ERK detection assay concentration and 1:3 dilutions, 10-point dose response] and appropriate amounts (270 nL) of test compounds were dispensed in a 384-well intermediate plate using an Echo 550 liquid handler. 30 uL/well of RPMI medium 1640-GlutaMAX™—I was added to the intermediate plate and the contents of the intermediate plate (10 uL/well) were then transferred to the 384-well collagen coated cell culture plate, which was incubated at 37° C., 5% CO2 for 2 hours. After removal of medium from the collagen coated cell culture plate, cells were lysed in lysis buffer from Alpha SureFire® Ultra™ Multiplex p-ERK and total ERK assay kit (PerkinElmer MPSU-PTERK) containing Halt™ Protease and Phosphatase inhibitor cocktail (ThermoFisher Scientific 78446) at room temperature with constant shaking at 300 rpm for 30 minutes. The cell lysates were then transferred to an OptiPlate-384 plate (PerkinElmer 6005620), and the phosphorylation of ERK (p-ERK) and total ERK levels were detected by Alpha SureFire® Ultra™ Multiplex p-EEK kit and total ERK assay kit (PerkinElmer MPSU-PTERK) following the manufacturer's protocol. Assay plates were read on a EnVision Multimode Plate Reader (PerkinElmer), and the ratio of p-ERK vs. total ERK in each well was used as the final readout. Dose response curves were analyzed using a 4-parameter logistic model to calculate IC50 values using Spotfire software.

T1 sequence (P01116 with tags, fused parts or gaps isoform P01116-2 G12V): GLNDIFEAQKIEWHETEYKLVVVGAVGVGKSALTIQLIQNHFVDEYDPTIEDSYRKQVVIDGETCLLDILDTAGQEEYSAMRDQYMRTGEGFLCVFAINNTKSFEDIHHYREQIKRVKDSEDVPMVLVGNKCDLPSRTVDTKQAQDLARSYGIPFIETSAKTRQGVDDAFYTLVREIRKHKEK

Row | Structure (SMILES) | IC50 (KRAS-G12V) | IC50 (KRAS-G12D) | IC50 [1] | IC50 (KRAS-G13D) | IC50 (NRAS) | IC50 (HRAS) | IC50 [2]
1 | Cc1cc(N)nc(-c2c(F)cc3c(N4CC[C@@H]5[C@@H](C#N)[C@@H]5CC4)nc(OC[C@@]45CCCN4C[C@H](F)C5)nc3c2F)c1C(F)(F)F [Ex. 45, (1R,7S,8S)-4-(7-(6-amino-4-methyl-3-(trifluoromethyl)pyridin-2-yl)-6,8-difluoro-2-(((2R,7aS)-2-fluorotetrahydro-1H-pyrrolizin-7a(5H)-yl)methoxy)quinazolin-4-yl)-4-azabicyclo[5.1.0]octane-8-carbonitrile] | 1490 nM | 4470 nM | 1750 nM | ≥ 11100 nM | > 11100 nM | > 11100 nM | –
2 | N#Cc1c(N)sc2c(F)ccc(-c3c(Cl)cc4c(N5CCCOCC5)nc(OC[C@]5(CN6CCOCC6)CC5(F)F)nc4c3F)c12 [compound 31, 2-amino-4-(6-chloro-2-(((R)-2,2-difluoro-1-(morpholinomethyl)cy-clopropyl)methoxy)-8-fluoro-4-(1,4-oxazepan-4-yl)quinazolin-7-yl)-7-fluorobenzo[b]thiophene-3-carbonitrile] | 152 nM | 2540 nM | 1180 nM | 748 nM | > 11100 nM | > 11100 nM | –
3 | N#Cc1c(N)sc2c(F)ccc(-c3c(Cl)cc4c(N5CCCOCC5)nc(OC[C@]5(CO)CC5(F)F)nc4c3F)c12 [Ex. 32, 2-amino-4-(6-chloro-2-(((R)-2,2-difluoro-1-(hydroxymethyl)cyclopropyl)methoxy)-8-fluoro-4-(1,4-oxazepan-4-yl)quinazolin-7-yl)-7-fluorobenzo[b]thiophene-3-carbonitrile] | 3440 nM | – | 885 nM | 798 nM | > 11100 nM | > 11100 nM | –
4 | CC1(NC[C@@]2(COc3nc(N4CCCOCC4)c4cc(Cl)c(-c5ccc(F)c6sc(N)c(C#N)c56)c(F)c4n3)CC2(F)F)COC1 [compound 29, 2-amino-4-(6-chloro-2-(((R)-2,2-difluoro-1-(((3-methyloxetan-3-yl)amino)methyl)cyclo-propyl)methoxy)-8-fluoro-4-(1,4-oxazepan-4-yl)quinazolin-7-yl)-7-fluorobenzo[b]thiophene-3-carbonitrile] | 273 nM | 2360 nM | 390 nM | 936 nM | > 11100 nM | > 11100 nM | –
5 | N#Cc1c(N)sc2c(F)ccc(-c3c(Br)cc4c(N5C6COCC5C6)nc(OC[C@@]56CCCN5C[C@H](F)C6)nc4c3F)c12 [Ex. 36, 4-(4-(3-oxa-6-azabicyclo[3.1.1]heptan-6-yl)-6-bromo-8-fluoro-2-(((2R,7aS)-2-fluorotetrahydro-1H-pyrrolizin-7a(5H)-yl)methoxy)quinazolin-7-yl)-2-amino-7-fluorobenzo[b]thiophene-3-carbonitrile] | – | 9.34 nM | 37.1 nM | 20.2 nM | > 11100 nM | > 11100 nM | 103 nM

The remaining compounds from weak to strong by IC50 (KRAS-G12V), led by results:

Row | IC50 (KRAS-G12V) | IC50 (KRAS-G12D) | IC50 [1] | IC50 (KRAS-G13D) | IC50 (NRAS) | IC50 (HRAS) | IC50 [2] | Structure (SMILES)
6 | 148 nM | 4980 nM | 243 nM | 846 nM | > 11100 nM | > 11100 nM | – | CC1(NC[C@@]2(COc3nc(N4CCCOCC4)c4cc(Cl)c(-c5ccc(F)c6sc(N)c(C#N)c56)c(F)c4n3)CC2(F)F)CC1 [compound 27, 2-amino-4-(6-chloro-2-(((R)-2,2-difluoro-1-(((1-methylcyclopropyl)a-mino)methyl)cyclopro-pyl)methoxy)-8-fluoro-4-(1,4-oxazepan-4-yl)quinazolin-7-yl)-7-fluorobenzo[b]thiophene-3-carbonitrile]
7 | 20.1 nM | 94 nM | – | – | – | – | 464 nM | N#Cc1c(N)sc2c(F)ccc(-c3c(Cl)cc4c(N5CCOCCC5C(F)(F)F)nc(OC[C@@]56CCCN5C[C@H](F)C6)nc4c3F)c12 (stereo partly drawn) [compound 15, 2-amino-4-(6-chloro-8-fluoro-2-(((2R,7aS)-2-fluorotetrahydro-1H-pyrrolizin-7a(5H)-yl)methoxy)-4-(5-(trifluoromethyl)-1,4-oxazepan-4-yl)quinazolin-7-yl)-7-fluorobenzo[b]thio-phene-3-carbonitrile]
8 | 1.24 nM | 2.33 nM | 5.51 nM | 1.13 nM | > 11100 nM | 1170 nM | 12.2 nM | N#Cc1c(N)sc2c(F)ccc(-c3c(C(F)(F)F)cc4c(N5CCCOCC5)nc(OC[C@@]56CCCN5C[C@H](F)C6)nc4c3F)c12 (single isomer, unassigned) [Ex. 35]

From patent US20260083750A1, “SMALL MOLECULE INHIBITORS OF KRAS PROTEINS” (MERCK SHARP & DOHME LLC, priority 2022, published 2026)
